Where “and” joins values, the source holds several entries; their conditions need not be identical. Equal entries are not always repeated. Inconclusive results and toxic doses are left out.
Test system: CD2F1 mice, L1210 leukemia ip, survival T/C
Assay: NCI In Vivo Anticancer Drug Screen. Data for tumor model L1210 Leukemia (intraperitoneal) in CD2F1 (CDF1) mice
Conditions: higher = longer survival
Summary of the method: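 Implant tumor; dose compound or vehicle; measure endpoint in both groups; report treated divided by control.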

[1] = endpoint: mean survival time, dose: 100.0 mg/kg/injection, schedule: Q04DX003 (ip), vehicle: saline
[2] = endpoint: mean survival time, dose: 200.0 mg/kg/injection, schedule: Q04DX003 (ip), vehicle: saline
[3] = endpoint: mean survival time, dose: 400.0 mg/kg/injection, schedule: Q04DX003 (ip), vehicle: saline
[4] = endpoint: mean survival time, dose: 100.0 mg/kg/injection, schedule: Q04DX003 (ip), vehicle: saline with Tween-80
[5] = endpoint: mean survival time, dose: 200.0 mg/kg/injection, schedule: Q04DX003 (ip), vehicle: saline with Tween-80
[6] = endpoint: mean survival time, dose: 400.0 mg/kg/injection, schedule: Q04DX003 (ip), vehicle: saline with Tween-80
[7] = endpoint: mean survival time, dose: 50.0 mg/kg/injection, schedule: Q01DX009 (ip), vehicle: saline with Tween-80
[8] = endpoint: mean survival time, dose: 100.0 mg/kg/injection, schedule: Q01DX009 (ip), vehicle: saline with Tween-80
[9] = endpoint: mean survival time, dose: 100.0 mg/kg/injection, schedule: Q04DX002 (ip), vehicle: saline with Tween-80
[10] = endpoint: mean survival time, dose: 200.0 mg/kg/injection, schedule: Q01DX009 (ip), vehicle: saline with Tween-80
[11] = endpoint: mean survival time, dose: 400.0 mg/kg/injection, schedule: Q01DX009 (ip), vehicle: saline with Tween-80
[12] = endpoint: mean survival time, dose: 200.0 mg/kg/injection, schedule: Q04DX002 (ip), vehicle: saline with Tween-80
[13] = endpoint: mean survival time, dose: 400.0 mg/kg/injection, schedule: Q04DX002 (ip), vehicle: saline with Tween-80

CCCNC(=O)Nc1ccc(C(=O)OCC(C)C)cc1
T/C [1]: 93 % of control
T/C [2]: 95 % of control
T/C [3]: 104 % of control

CN(C)C=Nc1c(Cl)cccc1Cl
T/C (endpoint: mean survival time, dose: 50.0 mg/kg/injection, schedule: Q01DX001 (ip), vehicle: saline): 100 % of control
T/C (endpoint: mean survival time, dose: 100.0 mg/kg/injection, schedule: Q01DX001 (ip), vehicle: saline): 103 % of control
T/C (endpoint: mean survival time, dose: 200.0 mg/kg/injection, schedule: Q01DX001 (ip), vehicle: saline): 97 % of control
T/C (endpoint: mean survival time, dose: 400.0 mg/kg/injection, schedule: Q01DX001 (ip), vehicle: saline): 106 % of control

C=CN1C(=O)NC(C)(CC(C)C)C1=O (stereo not drawn)
T/C [4]: 94 % of control
T/C [5]: 92 % of control
T/C [6]: 102 % of control

CC(=O)OC(c1ccc([N+](=O)[O-])cc1)c1ccccn1 (stereo not drawn)
T/C (endpoint: mean survival time, dose: 100.0 mg/kg/injection, schedule: Q04DX003 (ip), vehicle: other): 96 % of control
T/C (endpoint: mean survival time, dose: 200.0 mg/kg/injection, schedule: Q04DX003 (ip), vehicle: other): 93 % of control
T/C (endpoint: mean survival time, dose: 400.0 mg/kg/injection, schedule: Q04DX003 (ip), vehicle: other): 93 % of control

CCC1=C[C@H]2CN(CCc3c([nH]c4ccccc34)[C@@](C(=O)OC)(c3cc4c(cc3OC)N(C)[C@H]3[C@@](O)(C(=O)OC)[C@H](OC(C)=O)[C@]5(CC)C=CCN6CC[C@]43[C@@H]65)C2)C1
T/C (endpoint: mean survival time, dose: 0.25 mg/kg/injection, schedule: Q01DX009 (ip), vehicle: water): 102 % of control
T/C (endpoint: mean survival time, dose: 2.0 mg/kg/injection, schedule: Q01DX009 (ip), vehicle: water): 161 % of control
T/C (endpoint: mean survival time, dose: 4.0 mg/kg/injection, schedule: Q01DX009 (ip), vehicle: water): 91 % of control
T/C (endpoint: median survival time, dose: 0.5 mg/kg/injection, schedule: Q01DX009 (ip), vehicle: water): 115 % of control

CC1(CCO)NC(=O)NC1=O (stereo not drawn)
T/C (endpoint: mean survival time, dose: 100.0 mg/kg/injection, schedule: Q01DX009 (ip), vehicle: saline sonified): 97 % of control
T/C [1]: 100 % of control
T/C (endpoint: mean survival time, dose: 200.0 mg/kg/injection, schedule: Q01DX009 (ip), vehicle: saline sonified): 97 % of control
T/C [2]: 96 % of control
T/C (endpoint: mean survival time, dose: 400.0 mg/kg/injection, schedule: Q01DX009 (ip), vehicle: saline sonified): 97 % of control
T/C [3]: 100 % of control

CC(=O)ON1C(=O)c2cccc3cccc(c23)C1=O
T/C [7]: 96 % of control
T/C [8]: 102 % of control

O=C(CC(O)C(Cl)(Cl)Cl)c1ccccc1 (stereo not drawn)
T/C (endpoint: mean survival time, dose: 50.0 mg/kg/injection, schedule: Q04DX002 (ip), vehicle: saline with Tween-80): 88 % of control
T/C [9]: 88 % of control

COc1ccc(C(=O)c2ccccc2NC(C)=O)cc1
T/C [8]: 98 % of control
T/C [10]: 101 % of control
T/C [11]: 98 % of control

CCCC(N(C)C)P(=O)(O)O (stereo not drawn)
T/C [1]: 95 % of control
T/C [2]: 101 % of control
T/C [3]: 101 % of control

O=CNNC=O
T/C [8]: 94 % of control
T/C [4]: 107 % of control
T/C [10]: 92 % of control
T/C [5]: 96 % of control
T/C [11]: 97 % of control
T/C [6]: 100 % of control

CN(C)N=Nc1ccc(C(=O)N/N=C/c2ccc([N+](=O)[O-])cc2)cc1
T/C [1]: 97 % of control
T/C [2]: 93 % of control
T/C [3]: 93 % of control

Cc1c2ccccc2c(C)c2c1cc(C(=O)O)c1ccccc12
T/C (endpoint: mean survival time, dose: 12.5 mg/kg/injection, schedule: Q04DX002 (ip), vehicle: Klucel (hydroxypropylcellulose) (HPC)): 106 % of control
T/C (endpoint: mean survival time, dose: 25.0 mg/kg/injection, schedule: Q04DX002 (ip), vehicle: Klucel (hydroxypropylcellulose) (HPC)): 101 % of control
T/C (endpoint: mean survival time, dose: 50.0 mg/kg/injection, schedule: Q04DX002 (ip), vehicle: Klucel (hydroxypropylcellulose) (HPC)): 106 % of control
T/C (endpoint: mean survival time, dose: 100.0 mg/kg/injection, schedule: Q04DX002 (ip), vehicle: Klucel (hydroxypropylcellulose) (HPC)): 107 % of control
T/C (endpoint: mean survival time, dose: 150.0 mg/kg/injection, schedule: Q04DX002 (ip), vehicle: Klucel (hydroxypropylcellulose) (HPC)): 112 % of control
T/C (endpoint: median survival time, dose: 25.0 mg/kg/injection, schedule: Q01DX009 (ip), vehicle: sodium bicarbonate): 111 % of control
T/C (endpoint: median survival time, dose: 50.0 mg/kg/injection, schedule: Q01DX009 (ip), vehicle: sodium bicarbonate): 115 % of control and 117 % of control
T/C (endpoint: median survival time, dose: 200.0 mg/kg/injection, schedule: Q01DX009 (ip), vehicle: sodium bicarbonate): 122 % of control
T/C (endpoint: median survival time, dose: 400.0 mg/kg/injection, schedule: Q01DX009 (ip), vehicle: sodium bicarbonate): 107 % of control

NC(=S)NN=C1CCCCC1
T/C (endpoint: mean survival time, dose: 6.25 mg/kg/injection, schedule: Q01DX009 (ip), vehicle: saline with Tween-80): 98 % of control
T/C (endpoint: mean survival time, dose: 12.5 mg/kg/injection, schedule: Q01DX009 (ip), vehicle: saline with Tween-80): 96 % of control
T/C (endpoint: mean survival time, dose: 25.0 mg/kg/injection, schedule: Q01DX009 (ip), vehicle: saline with Tween-80): 98 % of control

Cc1cc(=O)c(C(=O)O)c(C)[nH]1
T/C [9]: 86 % of control
T/C [12]: 86 % of control
T/C [13]: 91 % of control

CN(C)c1ncnc2c1cnn2C1OC(CO)C(O)C1O (stereo not drawn)
T/C (endpoint: mean survival time, dose: 12.5 mg/kg/injection, schedule: Q01DX005 (ip), vehicle: water): 93 % of control
T/C (endpoint: mean survival time, dose: 25.0 mg/kg/injection, schedule: Q01DX005 (ip), vehicle: water): 90 % of control
T/C (endpoint: mean survival time, dose: 50.0 mg/kg/injection, schedule: Q01DX005 (ip), vehicle: water): 107 % of control
T/C (endpoint: mean survival time, dose: 100.0 mg/kg/injection, schedule: Q01DX005 (ip), vehicle: water): 100 % of control
T/C (endpoint: mean survival time, dose: 200.0 mg/kg/injection, schedule: Q01DX005 (ip), vehicle: water): 100 % of control

CC(C)=CC1CC(C)C2(CCC3(C)CC4C(C(=O)CC4(C)O)/C(C=O)=C\CC32)O1 (stereo not drawn)
T/C (endpoint: mean survival time, dose: 2.5 mg/kg/injection, schedule: Q01DX009 (ip), vehicle: saline with Tween-80): 97 % of control
T/C (endpoint: mean survival time, dose: 5.0 mg/kg/injection, schedule: Q01DX009 (ip), vehicle: saline with Tween-80): 94 % of control
T/C (endpoint: mean survival time, dose: 10.0 mg/kg/injection, schedule: Q01DX009 (ip), vehicle: saline with Tween-80): 97 % of control

CC1CC(C)(O)CC(C(O)CC2CC(=O)NC(=O)C2)C1=O (stereo not drawn)
T/C (endpoint: mean survival time, dose: 0.02 mg/kg/injection, schedule: Q01DX009 (ip), vehicle: saline): 96 % of control and 102 % of control
T/C (endpoint: mean survival time, dose: 0.04 mg/kg/injection, schedule: Q01DX009 (ip), vehicle: saline): 105 % of control and 107 % of control
T/C (endpoint: mean survival time, dose: 0.08 mg/kg/injection, schedule: Q01DX009 (ip), vehicle: saline): 114 % of control
T/C (endpoint: mean survival time, dose: 0.16 mg/kg/injection, schedule: Q01DX009 (ip), vehicle: saline): 117 % of control and 122 % of control

CC(C)c1cc(O)c(C(C)C)cc1O
T/C (endpoint: mean survival time, dose: 75.0 mg/kg/injection, schedule: Q01DX001 (ip), vehicle: saline): 104 % of control
T/C (endpoint: mean survival time, dose: 150.0 mg/kg/injection, schedule: Q01DX001 (ip), vehicle: saline): 111 % of control

OCC(F)(F)C(F)(F)C(F)(F)F
T/C (endpoint: mean survival time, dose: 75.0 mg/kg/injection, schedule: Q01DX009 (ip), vehicle: saline): 95 % of control
T/C (endpoint: mean survival time, dose: 150.0 mg/kg/injection, schedule: Q01DX009 (ip), vehicle: saline): 95 % of control
T/C (endpoint: mean survival time, dose: 300.0 mg/kg/injection, schedule: Q01DX009 (ip), vehicle: saline): 103 % of control
T/C (endpoint: mean survival time, dose: 600.0 mg/kg/injection, schedule: Q01DX009 (ip), vehicle: saline): 86 % of control

CCCCCCCCCCCC1=NC(CO)(CO)CO1
T/C [8]: 96 % of control
T/C [10]: 90 % of control
T/C [11]: 93 % of control

CCOC(=O)c1cnc[nH]1
T/C [9]: 103 % of control
T/C [12]: 95 % of control
T/C [13]: 103 % of control

CCCCOC(=O)c1ccccn1
T/C [7]: 101 % of control
T/C [8]: 95 % of control
T/C [10]: 98 % of control

CC(C)c1ccc(-n2cnc3c(=O)[nH]c(N)nc32)cc1
T/C (endpoint: mean survival time, dose: 100.0 mg/kg/injection, schedule: Q01DX001 (ip), vehicle: saline with Tween-80): 94 % of control
T/C (endpoint: mean survival time, dose: 200.0 mg/kg/injection, schedule: Q01DX001 (ip), vehicle: saline with Tween-80): 94 % of control
T/C (endpoint: mean survival time, dose: 400.0 mg/kg/injection, schedule: Q01DX001 (ip), vehicle: saline with Tween-80): 91 % of control

C=CCC(C)C(C)C (stereo not drawn)
T/C (endpoint: mean survival time, dose: 50.0 mg/kg/injection, schedule: Q01DX009 (ip), vehicle: saline): 96 % of control
T/C (endpoint: mean survival time, dose: 100.0 mg/kg/injection, schedule: Q01DX009 (ip), vehicle: saline): 100 % of control
T/C (endpoint: mean survival time, dose: 200.0 mg/kg/injection, schedule: Q01DX009 (ip), vehicle: saline): 100 % of control

[CH3][Sb]([CH3])([CH3])([O]C(=O)CF)[O]C(=O)CF
T/C (endpoint: mean survival time, dose: 1.25 mg/kg/injection, schedule: Q01DX009 (ip), vehicle: saline): 102 % of control
T/C (endpoint: mean survival time, dose: 2.5 mg/kg/injection, schedule: Q01DX009 (ip), vehicle: saline): 100 % of control
T/C (endpoint: mean survival time, dose: 5.0 mg/kg/injection, schedule: Q01DX009 (ip), vehicle: saline): 106 % of control
